Assay results as given in publication PMC4976316, “A pivotal role of vacuolar H^+-ATPase in regulation of lipid production in Phaeodactylum tricornutum” (Scientific Reports, 2016).

Target: T1, Vacuolar H^+-ATPase (V-ATPase) (Phaeodactylum tricornutum, UniProt B7G3I2+B7GCN4)
T1 construct: gene PHATRDRAFT_16442; native complex in microsomal membrane protein from algal cells, not purified; subunit genes not identified; with V-type proton ATPase subunit a; V-type proton ATPase catalytic subunit A; V-type proton ATPase subunit B; V-type proton ATPase subunit C; V-type proton ATPase subunit D; V-type proton ATPase subunit E; V-type proton ATPase subunit F; V-type proton ATPase subunit G; V-type proton ATPase subunit H; V-type proton ATPase subunit d
Assay: concanamycin A-sensitive ATPase activity (phosphate release) of microsomal membranes
Type: cell-based
Conditions: 100 nM BFA1 added to the growing culture, enzyme assayed afterwards in microsomes; days-long treatment, indirect effects possible

Q: With `CO/C1=C\C(C)=C\[C@@H](C)[C@@H](O)[C@@H](C)C/C(C)=C/C=C/[C@H](OC)[C@@H]([C@@H](C)[C@@H](O)[C@H](C)[C@@]2(O)C[C@@H](O)[C@H](C)[C@@H](C(C)C)O2)OC1=O` [BFA1, bafilomycin A1] as the molecule, how does the “% decrease of V-ATPase activity at 100 nM” value read?
A: ~ 66%
